# System: cynomolgus monkeys
# Experiment: 4-week safety study: routine ECG analysis
# Type: in vivo
# Experimental: Routine ECG analysis was performed at each scheduled time (day 1 after administration, d01 and d02 after administration, 1 and 24 h after administration on day 1, before administration, and 1 and 24 h after administration on day 26 and day 56). P-wave, R-wave, T-wave, P-R intervals, Q-T intervals, QRS duration and heart rate were recorded by an ECG system using derivation DII (ECG-6951E, Shanghai, China).
compound,measurement,setting,value
COC(=O)NCCCn1nc([C@@H](C)N(C(=O)[C@H]2CNCCO2)C2CC2)c2ccc(C)nc21 [compound of Formula I],HR,"Female, 20 mg/kg, 1 h (d 1)",230.1 ± 20.5 bmp
same,QRS,"Female, 20 mg/kg, 1 h (d 1)",38.0 ± 4.5 ms
same,QT,"Female, 20 mg/kg, 1 h (d 1)",160.0 ± 7.1 ms
same,QTc,"Female, 20 mg/kg, 1 h (d 1)",250.2 ± 10.4 ms
same,HR,"Female, 20 mg/kg, 1 h (d 26)",262.8 ± 13.5 bmp
same,QRS,"Female, 20 mg/kg, 1 h (d 26)",36.0 ± 5.5 ms
same,QT,"Female, 20 mg/kg, 1 h (d 26)",140.0 ± 7.1 ms
same,QTc,"Female, 20 mg/kg, 1 h (d 26)",228.9 ± 8.0 ms
same,HR,"Female, 20 mg/kg, 24 h (d 1)",209.8 ± 9.3 bmp
same,QRS,"Female, 20 mg/kg, 24 h (d 1)",34.0 ± 8.9 ms
same,QT,"Female, 20 mg/kg, 24 h (d 1)",158.0 ± 4.5 ms
same,QTc,"Female, 20 mg/kg, 24 h (d 1)",239.7 ± 5.4 ms
same,HR,"Female, 20 mg/kg, 24 h (d 26)",245.4 ± 43.9 bmp
same,QRS,"Female, 20 mg/kg, 24 h (d 26)",36.0 ± 5.5 ms
same,QT,"Female, 20 mg/kg, 24 h (d 26)",150.0 ± 10.0 ms
same,QTc,"Female, 20 mg/kg, 24 h (d 26)",238.6 ± 14.1 ms
same,HR,"Female, 20 mg/kg, d0",185.7 ± 48.0 bmp
same,QRS,"Female, 20 mg/kg, d0",34.0 ± 5.5 ms
same,QT,"Female, 20 mg/kg, d0",170.0 ± 20.0 ms
same,QTc,"Female, 20 mg/kg, d0",244.6 ± 14.3 ms
same,HR,"Female, 20 mg/kg, d 56",238.0 ± 29.2 bmp
same,QRS,"Female, 20 mg/kg, d 56",40.0 ± 0.0 ms
same,QT,"Female, 20 mg/kg, d 56",160.0 ± 0.0 ms
same,QTc,"Female, 20 mg/kg, d 56",253.1 ± 10.4 ms
same,HR,"Female, 100 mg/kg, 1 h (d 1)",228.5 ± 12.8 bmp
same,QRS,"Female, 100 mg/kg, 1 h (d 1)",36.0 ± 5.5 ms
same,QT,"Female, 100 mg/kg, 1 h (d 1)",160.0 ± 7.1 ms
same,QTc,"Female, 100 mg/kg, 1 h (d 1)",249.6 ± 6.7 ms
same,HR,"Female, 100 mg/kg, 1 h (d 26)",246.4 ± 40.7 bmp
same,QRS,"Female, 100 mg/kg, 1 h (d 26)",38.0 ± 4.5 ms
same,QT,"Female, 100 mg/kg, 1 h (d 26)",170.0 ± 10.0 ms
same,QTc,"Female, 100 mg/kg, 1 h (d 26)",271.1 ± 17.2 ms
same,HR,"Female, 100 mg/kg, 24 h (d 1)",217.6 ± 22.7 bmp
same,QRS,"Female, 100 mg/kg, 24 h (d 1)",34.0 ± 5.5 ms
same,QT,"Female, 100 mg/kg, 24 h (d 1)",162.0 ± 11.0 ms
same,QTc,"Female, 100 mg/kg, 24 h (d 1)",248.2 ± 7.7 ms
same,HR,"Female, 100 mg/kg, 24 h (d 26)",256.1 ± 17.1 bmp
same,QRS,"Female, 100 mg/kg, 24 h (d 26)",38.0 ± 4.5 ms
same,QT,"Female, 100 mg/kg, 24 h (d 26)",148.0 ± 8.4 ms
same,QTc,"Female, 100 mg/kg, 24 h (d 26)",239.8 ± 10.5 ms
same,HR,"Female, 100 mg/kg, d0",182.3 ± 28.9 bmp
same,QRS,"Female, 100 mg/kg, d0",32.0 ± 4.5 ms
same,QT,"Female, 100 mg/kg, d0",170.0 ± 12.2 ms
same,QTc,"Female, 100 mg/kg, d0",245.0 ± 9.2 ms
same,HR,"Female, 100 mg/kg, d 56",230.8 ± 5.0 bmp
same,QRS,"Female, 100 mg/kg, d 56",30.0 ± 0.0 ms
same,QT,"Female, 100 mg/kg, d 56",160.0 ± 0.0 ms
same,QTc,"Female, 100 mg/kg, d 56",250.7 ± 1.8 ms
same,HR,"Female, 450 mg/kg, 1 h (d 1)",211.3 ± 20.5 bmp
same,QRS,"Female, 450 mg/kg, 1 h (d 1)",50.0 ± 14.1 ms
same,QT,"Female, 450 mg/kg, 1 h (d 1)",175.0 ± 17.3 ms
same,QTc,"Female, 450 mg/kg, 1 h (d 1)",265.5 ± 19.9 ms
same,HR,"Female, 450 mg/kg, 1 h (d 26)",262.7 ± 15.4 bmp
same,QRS,"Female, 450 mg/kg, 1 h (d 26)",40.0 ± 0.2 ms
same,QT,"Female, 450 mg/kg, 1 h (d 26)",140.0 ± 8.2 ms
same,QTc,"Female, 450 mg/kg, 1 h (d 26)",229.0 ± 14.6 ms
same,HR,"Female, 450 mg/kg, 24 h (d 1)",211.3 ± 2.4 bmp
same,QRS,"Female, 450 mg/kg, 24 h (d 1)",35.0 ± 5.8 ms
same,QT,"Female, 450 mg/kg, 24 h (d 1)",162.5 ± 9.6 ms
same,QTc,"Female, 450 mg/kg, 24 h (d 1)",247.2 ± 13.8 ms
same,HR,"Female, 450 mg/kg, 24 h (d 26)",257.8 ± 9.0 bmp
same,QRS,"Female, 450 mg/kg, 24 h (d 26)",32.5 ± 5.0 ms
same,QT,"Female, 450 mg/kg, 24 h (d 26)",152.5 ± 9.6 ms
same,QTc,"Female, 450 mg/kg, 24 h (d 26)",247.8 ± 14.4 ms
same,HR,"Female, 450 mg/kg, d0",174.1 ± 28.8 bmp
same,QRS,"Female, 450 mg/kg, d0",32.0 ± 4.5 ms
same,QT,"Female, 450 mg/kg, d0",168.0 ± 16.4 ms
same,QTc,"Female, 450 mg/kg, d0",238.1 ± 12.7 ms
same,HR,"Female, 450 mg/kg, d 56",207.4 ± 28.1 bmp
same,QRS,"Female, 450 mg/kg, d 56",25.0 ± 7.1 ms
same,QT,"Female, 450 mg/kg, d 56",170.0 ± 14.1 ms
same,QTc,"Female, 450 mg/kg, d 56",256.3 ± 9.7 ms
same,HR,"Male, 20 mg/kg, 1 h (d 1)",216.0 ± 27.0 bmp
same,QRS,"Male, 20 mg/kg, 1 h (d 1)",32.0 ± 4.5 ms
same,QT,"Male, 20 mg/kg, 1 h (d 1)",158.0 ± 11.0 ms
same,QTc,"Male, 20 mg/kg, 1 h (d 1)",241.4 ± 12.3 ms
same,HR,"Male, 20 mg/kg, 1 h (d 26)",260.0 ± 12.4 bmp
same,QRS,"Male, 20 mg/kg, 1 h (d 26)",36.0 ± 5.5 ms
same,QT,"Male, 20 mg/kg, 1 h (d 26)",146.0 ± 11.4 ms
same,QTc,"Male, 20 mg/kg, 1 h (d 26)",237.8 ± 16.3 ms
same,HR,"Male, 20 mg/kg, 24 h (d 1)",206.1 ± 20.7 bmp
same,QRS,"Male, 20 mg/kg, 24 h (d 1)",28.0 ± 4.5 ms
same,QT,"Male, 20 mg/kg, 24 h (d 1)",166.0 ± 8.9 ms
same,QTc,"Male, 20 mg/kg, 24 h (d 1)",250.0 ± 10.4 ms
same,HR,"Male, 20 mg/kg, 24 h (d 26)",264.9 ± 16.1 bmp
same,QRS,"Male, 20 mg/kg, 24 h (d 26)",34.0 ± 5.5 ms
same,QT,"Male, 20 mg/kg, 24 h (d 26)",146.0 ± 11.4 ms
same,QTc,"Male, 20 mg/kg, 24 h (d 26)",239.2 ± 14.8 ms
same,HR,"Male, 20 mg/kg, d0",198.4 ± 16.5 bmp
same,QRS,"Male, 20 mg/kg, d0",34.0 ± 8.9 ms
same,QT,"Male, 20 mg/kg, d0",164.0 ± 11.4 ms
same,QTc,"Male, 20 mg/kg, d0",243.9 ± 11.7 ms
same,HR,"Male, 20 mg/kg, d 56",225.6 ± 2.4 bmp
same,QRS,"Male, 20 mg/kg, d 56",30.0 ± 0.0 ms
same,QT,"Male, 20 mg/kg, d 56",145.0 ± 7.1 ms
same,QTc,"Male, 20 mg/kg, d 56",225.4 ± 10.2 ms
same,HR,"Male, 100 mg/kg, 1 h (d 1)",230.0 ± 19.9 bmp
same,QRS,"Male, 100 mg/kg, 1 h (d 1)",38.0 ± 4.5 ms
same,QT,"Male, 100 mg/kg, 1 h (d 1)",156.0 ± 11.4 ms
same,QTc,"Male, 100 mg/kg, 1 h (d 1)",243.8 ± 16.5 ms
same,HR,"Male, 100 mg/kg, 1 h (d 26)",256.9 ± 16.7 bmp
same,QRS,"Male, 100 mg/kg, 1 h (d 26)",36.0 ± 5.5 ms
same,QT,"Male, 100 mg/kg, 1 h (d 26)",144.0 ± 5.5 ms
same,QTc,"Male, 100 mg/kg, 1 h (d 26)",233.8 ± 12.2 ms
same,HR,"Male, 100 mg/kg, 24 h (d 1)",208.2 ± 10.4 bmp
same,QRS,"Male, 100 mg/kg, 24 h (d 1)",36.0 ± 8.9 ms
same,QT,"Male, 100 mg/kg, 24 h (d 1)",162.0 ± 11.0 ms
same,QTc,"Male, 100 mg/kg, 24 h (d 1)",245.3 ± 18.6 ms
same,HR,"Male, 100 mg/kg, 24 h (d 26)",260.7 ± 9.1 bmp
same,QRS,"Male, 100 mg/kg, 24 h (d 26)",36.0 ± 5.5 ms
same,QT,"Male, 100 mg/kg, 24 h (d 26)",144.0 ± 8.9 ms
same,QTc,"Male, 100 mg/kg, 24 h (d 26)",234.9 ± 13.9 ms
same,HR,"Male, 100 mg/kg, d0",215.4 ± 11.2 bmp
same,QRS,"Male, 100 mg/kg, d0",32.0 ± 8.4 ms
same,QT,"Male, 100 mg/kg, d0",154.0 ± 16.7 ms
same,QTc,"Male, 100 mg/kg, d0",235.6 ± 24.5 ms
same,HR,"Male, 100 mg/kg, d 56",225.6 ± 2.4 bmp
same,QRS,"Male, 100 mg/kg, d 56",35.0 ± 7.1 ms
same,QT,"Male, 100 mg/kg, d 56",165.0 ± 7.1 ms
same,QTc,"Male, 100 mg/kg, d 56",256.6 ± 11.9 ms
same,HR,"Male, 450 mg/kg, 1 h (d 1)",217.4 ± 3.2 bmp
same,QRS,"Male, 450 mg/kg, 1 h (d 1)",36.7 ± 5.8 ms
same,QT,"Male, 450 mg/kg, 1 h (d 1)",170.0 ± 10.0 ms
same,QTc,"Male, 450 mg/kg, 1 h (d 1)",261.1 ± 16.0 ms
same,HR,"Male, 450 mg/kg, 1 h (d 26)",247.6 ± 22.6 bmp
same,QRS,"Male, 450 mg/kg, 1 h (d 26)",36.0 ± 13.4 ms
same,QT,"Male, 450 mg/kg, 1 h (d 26)",150.0 ± 17.3 ms
same,QTc,"Male, 450 mg/kg, 1 h (d 26)",240.0 ± 23.7 ms
same,HR,"Male, 450 mg/kg, 24 h (d 1)",211.0 ± 15.9 bmp
same,QRS,"Male, 450 mg/kg, 24 h (d 1)",32.0 ± 4.5 ms
same,QT,"Male, 450 mg/kg, 24 h (d 1)",166.0 ± 8.9 ms
same,QTc,"Male, 450 mg/kg, 24 h (d 1)",252.1 ± 9.4 ms
same,HR,"Male, 450 mg/kg, 24 h (d 26)",210.4 ± 49.9 bmp
same,QRS,"Male, 450 mg/kg, 24 h (d 26)",38.0 ± 4.5 ms
same,QT,"Male, 450 mg/kg, 24 h (d 26)",158.0 ± 13.0 ms
same,QTc,"Male, 450 mg/kg, 24 h (d 26)",237.7 ± 12.2 ms
same,HR,"Male, 450 mg/kg, d0",214.3 ± 17.7 bmp
same,QRS,"Male, 450 mg/kg, d0",34.0 ± 5.5 ms
same,QT,"Male, 450 mg/kg, d0",156.0 ± 5.5 ms
same,QTc,"Male, 450 mg/kg, d0",238.2 ± 7.2 ms
same,HR,"Male, 450 mg/kg, d 56",203.3 ± 15.5 bmp
same,QRS,"Male, 450 mg/kg, d 56",35.0 ± 7.1 ms
same,QT,"Male, 450 mg/kg, d 56",160.0 ± 0.0 ms
same,QTc,"Male, 450 mg/kg, d 56",240.2 ± 6.1 ms
same,QRS intervals,"high-dose females, 1 h after administration on d1 and d26",Prolonged
same,QRS intervals,"one high-dose male (animal No. 411), 1 h after administration on d26, prolonged",60 ms
same,Sinus arrhythmia,"one high-dose male, 1 h after administration on d26",Sinus arrhythmia was observed in one high-dose male
same,QTc intervals,"one mid-dose female (animal No. 303), 1 h after administration on d26, prolonged",296 ms
